Reference: patent US20260286356A1, “NUCLEIC ACID VACCINE FOR ACTIVATING NKG2C+ NATURAL KILLER CELLS” (priority 2023, published 2026)

Key:
[1] = system: NKG2A+/NKG2C− NK cells; experiment: NK cell stimulation assay with peptide-loaded HLA-E expressing target cells, NKG2A+ cells; type: cell-based, human; details: NK cell degranulation and IFN-g, TNF and CCL3 production; compared to LIL, LFL and PQS controls
Method: (§1) FIG. 4: NK cell stimulation assays. Assessment of effects of peptides on NK cell activity through incubation of NK cells, peptides, and a) K562/HLA-E or b) RMA-S/HLA-E target cells. Peptides were derived from the human or CMV proteomes or are included as positive (LFL, LIL) or negative controls (PQS). Replicates for individual peptides are from different donors, with solid black lines indicating mean values.
(§2) Cell-based activation assays were performed with primary NK cells (FIG. 4). Therein, NK cells were co-incubated with K562 peptide-loaded HLA-E expressing cells, as described previously^14. The K562 human […] cell line is a common tool for the analysis of NK cell cytotoxicity and activation, as said cells facilitate the analysis of both NKG2C-mediated activation and NKG2A-mediated inhibition. The PQS peptide served as a negative control.
(§3) Peptides that bound and stabilized HLA-E in the cell-based stability experiment (FIG. 3) were selected and assessed regarding their effect on NKG2A+/NKG2C− or NKG2A−/NKG2C+ NK cell activity. The effect was quantified by the ability to induce NK cell degranulation and IFN-g, TNF and CCL3 production, compared to […] (“LIL”; SEQ ID NO: 4) and […] (“LFL”; SEQ ID NO: 2) peptides (class I MHC-derived) as positive control, and […] (“PQS”; (SEQ ID NO: 53) as negative control peptide (FIG. 4). NKG2A/NKG2C NK cells served as an internal control. NKG2A/NKG2C NK cells have been shown previously to not be affected by peptide-HLA-E complexes.

[2] = molecular target: HLA-E (Homo sapiens, UniProt P13747); experiment: HLA-E surface stabilization assay with RMA-S/HLA-E cells; type: cell-based; details: RMA-S/HLA-E cells incubated with 30 μM peptide, anti-HLA-E antibody
Sequence of HLA-E (P13747 22-358): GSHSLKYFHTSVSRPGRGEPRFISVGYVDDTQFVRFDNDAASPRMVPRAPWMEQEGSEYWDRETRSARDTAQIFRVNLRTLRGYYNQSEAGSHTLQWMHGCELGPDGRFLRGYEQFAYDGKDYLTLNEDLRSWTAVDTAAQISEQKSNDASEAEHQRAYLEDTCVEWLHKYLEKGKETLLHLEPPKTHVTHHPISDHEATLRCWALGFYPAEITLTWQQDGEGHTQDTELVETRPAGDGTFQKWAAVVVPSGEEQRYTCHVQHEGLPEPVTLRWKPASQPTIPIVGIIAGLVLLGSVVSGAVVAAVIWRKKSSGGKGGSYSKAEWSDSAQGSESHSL
Sequence of HLA-E (P61769 21-119, further chain): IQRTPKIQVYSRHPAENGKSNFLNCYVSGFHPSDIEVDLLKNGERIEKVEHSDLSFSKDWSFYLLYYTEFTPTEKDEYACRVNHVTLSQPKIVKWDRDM
Method: Assessment of peptide-HLA-E binding via HLA-E surface stabilization assay with RMA-S/HLA-E cells incubated with 30 μM peptide. HLA-E expression is detected with an anti-HLA-E antibody.
To do so, various sequence variants were assessed for their ability to stabilize surface-expressed HLA-E on RMA-S/HLA-E cells, a TAP-deficient mouse tumor cell line engineered to express HLA-E and human β2M (FIG. 3).

[3] = system: NKG2A−/NKG2C+ NK cells; experiment: NK cell stimulation assay with peptide-loaded HLA-E expressing target cells, NKG2C+ cells; type: cell-based, human; details: NK cell degranulation and IFN-g, TNF and CCL3 production; compared to LIL, LFL and PQS controls
Method: as §1, §2, §3

| Sequence | inhibitory effect on NKG2A+ cells [1] | stabilization of HLA-E surface expression (peptide-HLA-E binding) [2] | activating effect on NKG2C+ cells [3] |
| --- | --- | --- | --- |
| TLPERTLYL | strong inhibitory effect | strong stabilization of HLA-E | strong activating effect |
| QMPSRSLLF | moderate inhibitory effects | strong stabilization of HLA-E | strong activating effects |
| WNRLFPPLR [UBAC2275-279, reference compound] | – | no stabilizing effects | – |
| RMPPRSVLL | strong inhibitory effect | – | strong activating effect |
| NMPARTVLF | strong inhibitory effect | strong stabilization of HLA-E | strong activating effect |
| VLPHRTQFL | strong inhibitory effect | strong HLA-E binding | strong activating effect |
| ILTDRSLWL | moderate inhibitory effects | strong stabilization of HLA-E | strong activating effects |
| TAPARTMFL | – | strong stabilization of HLA-E | – |
| FLPNRSLLF | moderate inhibitory effects | strong stabilization of HLA-E | strong activating effects |
| VMADKSIFY [OR5D14, reference compound] | – | no stabilizing effects | – |
| TLPKRGLFL | moderate inhibitory effects | strong stabilization of HLA-E | strong activating effects |
| VMPPRTLLL | strong inhibitory effect | strong stabilization of HLA-E | strong activating effect |
| VMPGRTLCF | strong inhibitory effect | strong stabilization of HLA-E | strong activating effect |
| VMGDRSVLY [EMC1, reference compound] | – | no stabilizing effects | – |
